This test has as its target T1, D1-protein of the PSII reaction center (QB-plastoquinone-herbicide-binding protein) (Spinacia oleracea, UniProt P69560).
T1 construct: gene psbA; native protein in isolated spinach thylakoids; with photosystem II complex
The test is described as follows: PSII chlorophyll fluorescence (PAM) in isolated thylakoids; block of Light 1-induced QA- re-oxidation. The format is biochemical.

On to `CN(C)C(=O)Nc1ccc(Cl)c(Cl)c1` [DCMU, 3-(3,4-dichlorophenyl)-1,1-dimethylurea], for which the “Concentration blocking Light 1-induced QA- re-oxidation” value is 0.5 µM.

Values taken from article PMC9455146, “Effects of Novel Photosynthetic Inhibitor [CuL2]Br2 Complex on Photosystem II Activity in Spinach” (Cells, 2022).
